# Results taken from patent US20010012854A1, “MULTICATALYTIC PROTEASE INHIBITORS FOR USE AS ANTI-TUMOR AGENTS” (priority 1997, published 2001).
# pIC50, pKi: −log10 of the molar value.
# Assays:
# [1] = tested on: Jurkat Human T Cell Leukemia Line; assay: Jurkat cell viability assay (XTT reduction); assay type: cell-based; conditions: Jurkat cells, 24 hours, viability by XTT reduction, read-out: Toxicity (IC50)
# Experimental: f. Cell viability assay. Jurkat cells were treated with MCP inhibitors or vehicle for 30 min. at 37° C. Next, ionomycin (1 μM) and the phorbol ester PMA (10 ng/ml) were added, together with 0.2% ethanol. After 24 h, cell viability was assessed by reduction of XTT (Sigma, X4251). To each well, 50 μl of XTT (1 mg/ml) and 25 μl PMS (Sigma 9625, 5 mM) were added. After 3 h at 37° C., the OD of each well was read at 450 nm/690 nm by a plate reader.
# The rank-order potency for Jurkat cell killing precisely matched the order for MCP inhibition (Table 2, below).
# [2] = tested on: Jurkat cells transfected with a control vector; assay: Apoptotic nuclear changes (Hoechst staining) in Jurkat cells transfected with control vector; assay type: cell-based, human
# Experimental: b. Cell culture. Human Jurkat T and HL-60 cells were grown in RPMI 1640 (Life Technologies, Inc.) supplemented with 10% fetal calf serum (Sigma), 100 units/ml of penicillin, 100 μg/ml of streptomycin and 2mM L-glutamine (growth medium). Jurkat T. cells overexpressing the Bcl-2 oncoprotein or vector alone (provided by Dr. D. Johnson, University of Pittsburgh, Pa.) were grown in the same growth medium with […] G418. Human cancer cell lines of breast (MCF-7, MDA-MB-231), prostate (DU145, PC3) and osteosarcoma (U2-OS), obtained from American Type Culture Collection (ATCC. Rockville, Md.)), were also grown in the RPMI growth medium. Human oral (SCC-25; from ATCC) and brain (SNB-19; Welch, W. C., et al. In Vitro Cell. Dev. Biol., 31:610-616, 1995) cancer cell lines, and normal (WI-38) and SV40-transformed human fibroblasts (WI-38 VA-13; from ATCC) were grown in DMEM medium containing 10% fetal calf serum, penicillin, streptomycin and L-glutamine.
# (§1) d. Flow cytometry nuclear staining and DNA fragmentation assays. DNA content analysis using flow cytometry was performed as described previously (Nicoletti, I., et al. J. Immunol. Methods 139:271-279, 1992). To assay nuclear morphology, cells were washed with PBS, fixed with 70% ethanol for 1 h, and stained with Hoechst 33258 (1 mM) for 30 min. The nuclear morphology of cells was visualized by fluorescence microscope (OLYMPUS BH2). DNA fragmentation was assayed as described previously (Grant, S., et al. Cancer Res. 52:6270-6278, 1992).
# The apoptosis-inducing potency of Compound A was compared with two standard chemotherapeutic anti-cancer agents, etoposide and cisplatin. […] By comparison, treatment with 50 μM etoposide for 8 h induced only ˜47% of these cells to undergo apoptosis (FIG. 3, panels c vs. a). Treatment of 10 μM Compound A, but not etoposide or cisplatin, induced apoptosis in human prostate, breast, tongue and brain cancer cells and also in SV40 DNA virus-transformed human fibroblasts (see FIGS. 5-7).
# [3] = molecular target: MCP chymotrypsin-like activity (Homo sapiens, UniProt P28074); conditions: literature values (Iqbal et al.; Rock et al.); read-out: Ki toward the proteasome chymotrypsin-like activity; cited from earlier work
# [4] = tested on: PARP, RB and caspase-3 cleavage in Jurkat T cells; assay: Western blot of caspase-3, PARP and RB in Jurkat T cells; assay type: cell-based, human
# Experimental: (§2) e. Whole cell extracts and western blot assay. To prepare whole cell extracts, cells were washed with PBS, and homogenized in lysis buffer (50 mM Tris, pH 8.0, 5 mM EDTA, 150 mM NaCl, 0.5% Nonidet P-40, 0.5 mM PMSF and 0.5 mM dithiothreitol). Following 30 min rocking at 4° C., the lysates were centrifuged and the supernatants were collected as whole cell extracts. The protein samples were then analyzed by sodium dodecyl sulfate-6% polyacrylamide gel electrophoresis (20-60 μg protein per lane) followed by the enhanced chemiluminescence Western blot assay using specific antibodies to CPP32, PARP, p21, p27 or RB.
# Example 1 was designed to determine if MCP is involved in the survival signaling pathway(s) and if inhibition of MCP activity induces apoptosis. Human Jurkat T cells were treated with 30 μM Compound A for 4 h. […] Both the p112 and p115 forms of RB as p112-115/RB were combined and used as an apoptosis marker.
# The ability of these three MCP inhibitors to induce changes in PARP and RB proteins in a parallel experiment was also investigated. […] This rank corresponded exactly to that of the three compounds for inhibition of the chymotrypsin-like activity in isolated proteasomes (Iqbal, M., et al. J. Med Chem. 38: 2276-2277, 1995; Iqbal, M., et al. Bioorg. Med. Chem. Lett. 6: 287-290, 1996) and in intact murine B cells (Harding, C. V., et al. J Immuno. 155: 1767-1775, 1995).
# [5] = tested on: Human prostate cancer PC-3 cells; assay: Detachment and apoptotic nuclear changes in PC-3 cells; assay type: cell-based; conditions: PC-3, 10 μM, 36 h
# Experimental: (§3) c. Treatment of cells with MCP inhibitor. Cells were treated with a specified MCP Inhibitor, a standard anticancer agent (etoposide or cisplatin), or DMSO (vehicle). During this process, morphological changes and cellular detachment (for attached cell lines) were monitored. At each time point, cells were harvested, and used for measurement of apoptosis and other biochemical events. In Example 1, infra, involving YVAD-CMK, Compound A was first added to Jurkat T cells. This was followed immediately by dividing the cells into multiple tissue culture flasks. YVAD-CMK was then added to an indicated concentration.
# as §1
# Human prostate cancer PC-3 cells were treated with 10 μM Compound A, etoposide, or an equal percentage of vehicle (DMSO), followed by separation of the attached and detached cell populations. Both attached and detached cell populations were then used for detection of apoptotic nuclear changes. After 36 h treatment with Compound A, ˜50% of PC-3 cells became detached.
# [6] = tested on: SV40-transformed human fibroblasts (WI-38 VA13); assay: Detachment, apoptotic nuclear changes and PARP cleavage in SV40-transformed fibroblasts; assay type: cell-based
# Experimental: as §3, §1, §2
# Whether Compound A has, any selectivity in induction of apoptosis between transformed and normal cells was investigated. Normal human fibroblast cell line (WI-38) and its SV40-transformed derivative (WI-38 VA13) were utilized. […]
smiles,measurement,setting,value
CC(C)C[C@@H](C=O)NC(=O)[C@@H](CCCNC(=N)N[N+](=O)[O-])NC(=O)C(CCCCCCCCN1C(=O)c2ccccc2C1=O)C1CCCC1 (stereo partly drawn) [Compound A],pIC50,[1],6.30
same,Cells exhibiting apoptotic nuclear morphology,"[2]; 15 μM, 8 h",30%
same,Cells exhibiting apoptotic nuclear changes,"[2]; 30 μM, 3.5 h",~100%
same,pKi,[3],> 8.70
same,Production of p85/PARP and p112-115/RB,"[4]; Jurkat T cells, 15 μM, time course up to 24 h",production of p85/PARP and p 112-115/RB were observed after 2 h
same,Cleavage of PARP to p85 and RB to p68,"[4]; Jurkat T cells, 30 μM, 4 h",induced cleavage of PARP to a p85 fragment
same,Processing of caspase-3,"[4]; Jurkat T cells, 30 μM, 4 h",induced processing of caspase-3
same,Cleavage of PARP,"[4]; Jurkat cells, 30 μM, 3-4 h",complete cleavage of PARP
same,Detached cells,[5],~50%
same,Nuclear morphology (apoptotic condensation and fragmentation),[5],All the detached PC-3 cells exhibited typical apoptotic nuclear condensation and fragmentation
same,PARP cleavage,"[6]; SV40-transformed WI-38, total cell population",observed only in the transformed
same,Detachment and apoptotic nuclear changes,"[6]; WI-38 VA13, 10 μM, up to 22 h",induced a detachment in the majority of SV40-transformed cells
